The record followed here is patent US20240165231A1, “CAR-T DELIVERY OF SYNTHETIC PEPTIDE THERAPEUTICS” (THE TRUSTEES OF THE UNIVERSITY OF PENNSYLVANIA, priority 2021, published 2024).

“Also recorded” adds a separate entry of the source.

Assay [1] has as its system STING. As to the kind of experiment: BMDC stimulation with liposome-encapsulated STING peptides, CD86 as surrogate for STING activity. It counts as cell-based, mouse. To be noted: peptides in liposomes, 48 hours, flow cytometry. Here is the method:
Six cGAMP mimetic peptides (also referred to herein as STING peptides) were selected to test for activity. […] BDMCs were prepared by harvesting bone marrow from mouse hindlimbs and culturing in media (RPMI+10% FBS in 30 ng/mL GM-CSF) for 4 days. BMDCs were then stimulated with potential STING agonist peptides encapsulated in liposomes (Lipofectamine 2000) and returned to culture with GM-CSF for 48 hours. BMDCs were then evaluated for expression of CD86 by flow cytometry as a surrogate for STING activity. A schematic of the study design is provided in the left panel of FIG. 15.
On the technique in general: Flow cytometry measures light scatter and fluorescence of single cells or particles in a stream.

Assay [2] deals with STING. As to the kind of experiment: ST2-stimulated, Ova-loaded BMDCs (WT or STING KO) co-cultured with OT-I T cells. Format: cell-based, mouse. To be noted: for OT-I T cell Granzyme B / OT-I T cell IFNγ / OT-I T cell Ki67: 48 hours. Here is the method: Activity of the STING agonist peptide ST2 was further characterized. BMDCs from wild type (WT) or STING knock-out (KO) mice were prepared as described above. Following stimulation with ST2, cells were loaded with Ova (SIINFEKL) peptide and then extensively washed to remove residual peptide. OT-I T cells specific for the Ova peptide were then added to BMDC cultures to assess DC activity and ability to stimulate CD8 T cell responses. OT-I T cell expression of Granzyme B (an indicator of cell killing activity), Ki67 (an indicator of cell proliferation), and IFNγ were assessed by flow cytometry 48 hours later.

The test system of another assay is TSA breast cancer cells. Briefly: PD-L1 as readout of DNA damage response after liposomal PARPi mimetic peptides. It counts as cell-based. To be noted: peptides in liposomes, 48 hours, flow cytometry. The protocol: PARP inhibitor peptides were computationally designed using methods as described in Example 2. Resulting PARP inhibitor (PARPi) mimetic peptides were encapsulated in liposomes and transfected into TSA breast cancer cells in vitro. 48 hours later, PD-L1 was assessed by flow cytometry as a readout of a DNA damage response. […] The PARP inhibitor olaparib was used as a positive control. […] In embodiments, the PARPi mimetic peptides may be introduced into a CAR construct for delivery to the tumor microenvironment via an engineered CAR-T cell.

The test system of the next assay is B16 cells. As to the kind of experiment: Cell death after liposomal SMACm6 with or without TNF. It counts as cell-based. Here is the method:
SMAC peptides were generated using a rational design strategy. Peptides with the best binding and potency (as measured by induction of cell death) in a dose response assay were selected for testing. SMAC mimetic peptide compositions were encapsulated in liposomes and transfected into B16 or KP (lung adenocarcinoma) cells in vitro at various concentrations in the presence of 20 ng/mL of TNF. 24 hours later, cell death was assessed by flow cytometry. Peptide 6 (SMACm6; SEQ ID NO: 8) was selected for further analysis based on dose response in multiple cell lines.
The SMACm6 mimetic peptides were encapsulated in liposomes and transfected into B16 or KP cells in vitro at various concentrations with or without 20 ng/mL TNF.

Consider LFILSG [ST2], for which, in the assay on STING [1], the “CD86 expression in BMDCs” value is on record as “increased CD86 expression in BMDCs at statistically significant levels over negative control; also recorded: highest CD86 expression of the peptides tested”. In addition, in the assay on STING [2] (STING KO BMDCs), the “OT-I T cell Granzyme B” value is given as “not significantly increased over liposome-only controls”, the “OT-I T cell IFNγ” value is reported as “not significantly increased over liposome-only controls” and the “OT-I T cell Ki67” value is “not significantly increased over liposome-only controls”. Further, in the assay on STING [2] (WT BMDCs), the “OT-I T cell Granzyme B” value is reported as “significantly increased”, the “OT-I T cell IFNγ” value is “significantly increased” and the “OT-I T cell Ki67” value is recorded as “significantly increased”. The “STING dependence of T cell activation” value in the assay with STING [2] (WT versus STING KO) is listed as “requires the STING pathway; also recorded: STING dependent”.
For LFIKP [ST5], in the assay with STING [1], the “CD86 expression in BMDCs” value was “increased CD86 expression in BMDCs at statistically significant levels over negative control”.
MFEYG [ST4]: the “CD86 expression in BMDCs” value in the assay with STING [1] is given as “increased CD86 expression in BMDCs at statistically significant levels over negative control”.
Consider APLPP [Pep1], for which the PD-L1 expression result in the assay on TSA breast cancer cells is “increased PD-L1 expression”.
CIFEFPGC [ST1C]: the “CD86 expression in BMDCs” value in the assay with STING [1] is on record as “increased CD86 expression in BMDCs at statistically significant levels over negative control”.
Still for that read-out and setting: as for TFEYSG [ST3], the entry is “increased CD86 expression in BMDCs at statistically significant levels over negative control”.
Consider APLGG [Pep2], for which the PD-L1 expression entry with TSA breast cancer cells is on record as “increased PD-L1 expression”.
Regarding IFEFPG [ST1], the “CD86 expression in BMDCs” value in the assay with STING [1] is reported as “increased CD86 expression in BMDCs at statistically significant levels over negative control”.
For the substance CAPLPPC [Pep1C], in the assay on TSA breast cancer cells, the PD-L1 expression result is given as “increased PD-L1 expression”.
The same measure, in the same setting: the same measure for VPHPP [Pep3]: “increased PD-L1 expression”.
With AVPIGGGGGGGGGGGGGGGIPVA [SMACm6], the relative cell death entry is on record as “no cell death was observed” in the assay on B16 cells (absence of TNF) and “increasing relative cell death” with B16 cells (presence of 20 ng/mL TNF, increasing concentrations). Moreover, in the assay with B16 cells (presence or absence of TNF), the “TNF dependence of cell death induction” value is “dependent on TNF signaling”.
